19 compounds from patent publication US20240043427A1 (Gilead Sciences, Inc., priority 2020, published 2024) can be followed below.

The target of assay [1] is T1, CD73 (Homo sapiens (Human), UniProt P21589). The assay can be described thus: MDA-MB-231 Cell Based CD73 Activity Assay (DMEM). As to conditions: MDA-MB-231-GFP cells, DMEM medium with 10% human plasma, 200 uM AMP.
The target in assay [2] is T1, CD73. The assay is classed as biochemical. The note with it: 1 mM NaH2PO4 in enzyme buffer, CD73 0.3 nM, AMP 15 uM.

T1 sequence (P21589 27-574): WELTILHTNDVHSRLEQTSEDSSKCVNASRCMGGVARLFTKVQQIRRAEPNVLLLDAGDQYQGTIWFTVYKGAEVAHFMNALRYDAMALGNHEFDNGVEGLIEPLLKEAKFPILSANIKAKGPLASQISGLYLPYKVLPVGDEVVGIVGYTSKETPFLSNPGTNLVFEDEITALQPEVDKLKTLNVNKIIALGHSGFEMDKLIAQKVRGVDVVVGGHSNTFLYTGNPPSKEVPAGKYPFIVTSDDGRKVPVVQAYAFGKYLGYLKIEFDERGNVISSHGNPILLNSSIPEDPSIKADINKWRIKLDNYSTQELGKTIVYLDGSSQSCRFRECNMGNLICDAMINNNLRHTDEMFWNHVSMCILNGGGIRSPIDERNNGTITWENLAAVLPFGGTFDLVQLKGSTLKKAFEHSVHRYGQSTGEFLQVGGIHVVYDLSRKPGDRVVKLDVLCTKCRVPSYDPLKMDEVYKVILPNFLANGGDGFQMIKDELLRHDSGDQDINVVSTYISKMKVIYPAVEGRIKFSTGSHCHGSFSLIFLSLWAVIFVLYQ

Take `O=c1[nH]cc(-c2cc(N3CC[C@H](OC(F)F)C3)c3nccn3n2)c(=O)[nH]1` [Example 348, (S)-5-(8-(3-(difluoromethoxy)pyrrolidin-1-yl)imidazo[1,2-b]pyridazin-6-yl)pyrimidine-2,4(1H,3H)-dione]: the EC50 (in general, the concentration at which the effect is half-maximal) on CD73 [1] came out at 121 nM. In addition, on CD73 [2], the IC50 – broadly, the concentration at which inhibition is half-maximal – came out at 54 nM.
On CD73 [1], `COC1CN(c2cc(-c3c[nH]c(=O)[nH]c3=O)nn3ccnc23)CC12CC2` (centres unmarked) [Example 349, 5-(8-(7-methoxy-5-azaspiro[2.4]heptan-5-yl)imidazo[1,2-b]pyridazin-6-yl)pyrimidine-2,4(1H,3H)-dione] showed a half-maximal effective concentration (EC50) of 124 nM. The compound also displayed a half-maximal inhibitory concentration (IC50) at CD73 [2] of 148 nM.
Compound `O=c1[nH]cc(-c2cc(N3CC(F)(F)C4(CC4)C3)n3nccc3n2)c(=O)[nH]1` [Example 350, 5-(7-(7,7-difluoro-5-azaspiro[2.4]heptan-5-yl)pyrazolo[1,5-a]pyrimidin-5-yl)pyrimidine-2,4(1H,3H)-dione] yielded an EC50 on CD73 [1] of 99.3 nM. On CD73 [2], the 50% inhibitory concentration (IC50) was 12 nM.
The corresponding values for `O=c1[nH]cc(-c2cc(N3CC(F)(F)C(F)(F)C3)c3ncc(F)n3n2)c(=O)[nH]1` [Example 351, 5-(3-fluoro-8-(3,3,4,4-tetrafluoropyrrolidin-1-yl)imidazo[1,2-b]pyridazin-6-yl)pyrimidine-2,4(1H,3H)-dione] are 56.4 nM and 10.6 nM.
On to `O=c1[nH]cc(-c2cc(N3C[C@@H]4[C@H](C3)[C@H]4C(F)(F)F)c3nccn3n2)c(=O)[nH]1` [Example 352, 5-(8-((1R,5S,6r)-6-(trifluoromethyl)-3-azabicyclo[3.1.0]hexan-3-yl)imidazo[1,2-b]pyridazin-6-yl)pyrimidine-2,4(1H,3H)-dione], for which, on CD73 [1], the concentration giving a half-maximal response (EC50) was 1000 nM. Moreover, the half-inhibitory concentration (IC50) on CD73 [2] is above 250 nM.
`O=c1[nH]cc(-c2cc(N3CCC(C(F)(F)F)(C(F)(F)F)C3)c3nccn3n2)c(=O)[nH]1` [Example 353, 5-(8-(3,3-bis(trifluoromethyl)pyrrolidin-1-yl)imidazo[1,2-b]pyridazin-6-yl)pyrimidine-2,4(1H,3H)-dione]: the half-maximal effective concentration (EC50) on CD73 [1] was 109 nM. Further, the 50% inhibitory concentration (IC50) against CD73 [2] amounted to 69.6 nM.
`N#CC12CC1CN(c1cc(-c3c[nH]c(=O)[nH]c3=O)nn3ccnc13)C2` (centres unmarked) [Example 354, 3-(6-(2,4-dioxo-1,2,3,4-tetrahydropyrimidin-5-yl)imidazo[1,2-b]pyridazin-8-yl)-3-azabicyclo[3.1.0]hexane-1-carbonitrile]: a half-maximal effect at CD73 [1] (EC50) was put at 401 nM. This compound also yielded an IC50 against CD73 [2] of 90.8 nM.
On the same counts, the results for `O=c1[nH]cc(-c2cc(N3CC4CC4(F)C3)c3nccn3n2)c(=O)[nH]1` (centres unmarked) [Example 355, 5-(8-(1-fluoro-3-azabicyclo[3.1.0]hexan-3-yl)imidazo[1,2-b]pyridazin-6-yl)pyrimidine-2,4(1H,3H)-dione] are 14.5 nM and 7.56 nM.
Consider `O=c1[nH]cc(-c2cc(N3CC(F)(F)C(F)(F)C3)n3ncnc3n2)c(=O)[nH]1` [Example 356, 5-(7-(3,3,4,4-tetrafluoropyrrolidin-1-yl)-[1,2,4]triazolo[1,5-a]pyrimidin-5-yl)pyrimidine-2,4(1H,3H)-dione], for which a half-maximal effect at CD73 [1] (EC50) was put at 916 nM. At CD73 [2], this compound had a 50% inhibitory concentration (IC50) above 250 nM.
`O=c1[nH]cc(-c2cc(N3CC(F)(F)C4(CC4)C3)n3ncnc3n2)c(=O)[nH]1` [Example 357, 5-(7-(7,7-difluoro-5-azaspiro[2.4]heptan-5-yl)-[1,2,4]triazolo[1,5-a]pyrimidin-5-yl)pyrimidine-2,4(1H,3H)-dione]: the concentration for a half-maximal effect (EC50) at CD73 [1] came to 402 nM. In addition, the IC50 against CD73 [2] is above 250 nM.
`O=c1[nH]cc(-c2cc(N3CC(F)(F)C(F)(F)C3)n3nccc3n2)c(=O)[nH]1` [Example 358, 5-(7-(3,3,4,4-tetrafluoropyrrolidin-1-yl)pyrazolo[1,5-a]pyrimidin-5-yl)pyrimidine-2,4(1H,3H)-dione] showed a half-maximal effective concentration (EC50) on CD73 [1] of 82.2 nM. The concentration for half-maximal inhibition (IC50) against CD73 [2] was determined as 27.8 nM.
Compound `O=c1[nH]cc(-c2cc([C@H]3C[C@@H]3c3ncc(Br)cn3)c3nccn3n2)c(=O)[nH]1` [Example 380, 5-(8-((1S,2S)-2-(5-bromopyrimidin-2-yl)cyclopropyl)imidazo[1,2-b]pyridazin-6-yl)pyrimidine-2,4(1H,3H)-dione] showed an EC50 at CD73 [1] of 14.3 nM. In addition, the half-inhibitory concentration (IC50) on CD73 [2] was found to be 3.43 nM.
On the same counts, the results for `O=C1N(CC(F)(F)F)c2cc([C@H]3C[C@@H]3c3cc(-c4c[nH]c(=O)[nH]c4=O)nn4c(F)cnc34)ccc2C12CC2` [Example 381, 5-(3-fluoro-8-((1S,2S)-2-(2′-oxo-1′-(2,2,2-trifluoroethyl)spiro[cyclopropane-1,3′-indolin]-6′-yl)cyclopropyl)imidazo[1,2-b]pyridazin-6-yl)pyrimidine-2,4(1H,3H)-dione] are 0.16 nM and 0.69 nM.
On the same counts, the results for `O=C1N(CC(F)(F)F)c2cc([C@H]3C[C@@H]3c3cc(-c4c[nH]c(=O)[nH]c4=O)nn4ccnc34)ccc2C12CCC2` [Example 384, 5-(8-((1S,2S)-2-(2′-oxo-1′-(2,2,2-trifluoroethyl)spiro[cyclobutane-1,3′-indolin]-6′-yl)cyclopropyl)imidazo[1,2-b]pyridazin-6-yl)pyrimidine-2,4(1H,3H)-dione] are 0.24 nM and 1.27 nM.
On the same counts, the results for `O=C1N(CC(F)(F)F)c2cc([C@H]3C[C@@H]3c3cc(-c4c[nH]c(=O)[nH]c4=O)nn4c(F)cnc34)ccc2C12CCCC2` [Example 385, 5-(3-fluoro-8-((1S,2S)-2-(2′-oxo-1′-(2,2,2-trifluoroethyl)spiro[cyclopentane-1,3′-indolin]-6′-yl)cyclopropyl)imidazo[1,2-b]pyridazin-6-yl)pyrimidine-2,4(1H,3H)-dione] are 0.25 nM and 0.68 nM.
At CD73 [1], `O=C1N(CC(F)(F)F)c2cc([C@H]3C[C@@H]3c3cc(-c4c[nH]c(=O)[nH]c4=O)nn4c(F)cnc34)ccc2C12CCC2` [Example 386, 5-(3-fluoro-8-((1S,2S)-2-(2′-oxo-1′-(2,2,2-trifluoroethyl)spiro[cyclobutane-1,3′-indolin]-6′-yl)cyclopropyl)imidazo[1,2-b]pyridazin-6-yl)pyrimidine-2,4(1H,3H)-dione] had a concentration for a half-maximal effect (EC50) of 0.28 nM. The compound also yielded an IC50 against CD73 [2] of 0.92 nM.
As for `O=C1N(CC(F)(F)F)c2cc([C@H]3C[C@@H]3c3cc(-c4c[nH]c(=O)[nH]c4=O)nn4ccnc34)ccc2C12CCCC2` [Example 387, 5-(8-((1S,2S)-2-(2′-oxo-1′-(2,2,2-trifluoroethyl)spiro[cyclopentane-1,3′-indolin]-6′-yl)cyclopropyl)imidazo[1,2-b]pyridazin-6-yl)pyrimidine-2,4(1H,3H)-dione], on CD73 [1], the EC50 was found to be 0.36 nM. On CD73 [2], this compound showed an IC50 of 1.27 nM.
`O=C1N(CC(F)(F)F)c2cc([C@H]3C[C@@H]3c3cc(-c4c[nH]c(=O)[nH]c4=O)nn4c(Cl)cnc34)ccc2C12CC2` [Example 388, 5-(3-chloro-8-((1S,2S)-2-(2′-oxo-1′-(2,2,2-trifluoroethyl)spiro[cyclopropane-1,3′-indolin]-6′-yl)cyclopropyl)imidazo[1,2-b]pyridazin-6-yl)pyrimidine-2,4(1H,3H)-dione] gave a 50% effective concentration (EC50) at CD73 [1] of 0.21 nM. Besides, on CD73 [2], half-maximal inhibition (IC50) was put at 0.41 nM.
On the same counts, the results for `O=c1[nH]cc(-c2cc([C@H]3C[C@@H]3c3cc4c(cn3)c(F)cn4CC(F)(F)F)c3nccn3n2)c(=O)[nH]1` [Example 392, 5-(8-((1S,2S)-2-(3-fluoro-1-(2,2,2-trifluoroethyl)-1H-pyrrolo[3,2-c]pyridin-6-yl)cyclopropyl)imidazo[1,2-b]pyridazin-6-yl)pyrimidine-2,4(1H,3H)-dione] are 0.34 nM and 1.25 nM.
